Data from the NIST ThermoML archive (doi:10.1021/acs.jced.5b00654).
Values joined by “and” are separate entries in the source; they are usually repeats but may differ in a detail not shown here. Equal values may be shown once. ± gives the expanded uncertainty stated by the source.

Settings: Fluid (supercritical or subcritical phases); for mass density: Buoyancy - hydrostatic balance with magnetic suspension - one sinker; for viscosity: Vibrating wire viscometry

CCCC [butane]
mass density (428.2 K, 3793.8 kPa): 137.58 ± 2.4 kg/m3
viscosity (428.2 K, 3793.8 kPa): 0.01557 ± 0.00091 mPa·s
mass density (428.2 K, 4030 kPa): 274.89 ± 3.2 kg/m3
viscosity (428.2 K, 4030 kPa): 0.02934 ± 0.001 mPa·s
mass density (428.2 K, 4030.1 kPa): 274.9 ± 3.2 kg/m3
viscosity (428.2 K, 4030.1 kPa): 0.02934 ± 0.001 mPa·s
mass density (428.2 K, 22973 kPa): 480.02 ± 0.54 kg/m3
viscosity (428.2 K, 22973 kPa): 0.08495 ± 0.0014 mPa·s
mass density (428.21 K, 1539.8 kPa): 29.634 ± 0.069 kg/m3
viscosity (428.21 K, 1539.8 kPa): 0.01094 ± 0.00086 mPa·s
mass density (428.21 K, 1540.1 kPa): 29.642 ± 0.069 kg/m3
viscosity (428.21 K, 1540.1 kPa): 0.01093 ± 0.00086 mPa·s
mass density (428.21 K, 22974 kPa): 480.02 ± 0.54 kg/m3
viscosity (428.21 K, 22974 kPa): 0.08503 ± 0.0014 mPa·s and 0.08492 ± 0.0014 mPa·s
mass density (428.22 K, 3107.8 kPa): 80.455 ± 0.26 kg/m3
viscosity (428.22 K, 3107.8 kPa): 0.01252 ± 0.00087 mPa·s
mass density (428.23 K, 3108.6 kPa): 80.486 ± 0.26 kg/m3
viscosity (428.23 K, 3108.6 kPa): 0.01253 ± 0.00087 mPa·s
mass density (428.34 K, 3805.1 kPa): 138.83 ± 29 kg/m3
viscosity (428.34 K, 3805.1 kPa): 0.01567 ± 0.0033 mPa·s
mass density (428.39 K, 3806.5 kPa): 138.8 ± 0.82 kg/m3
viscosity (428.39 K, 3806.5 kPa): 0.01569 ± 0.0009 mPa·s
mass density (448.09 K, 4846.2 kPa): 174.16 ± 1.2 kg/m3
viscosity (448.09 K, 4846.2 kPa): 0.01886 ± 0.00093 mPa·s
mass density (448.11 K, 5054.5 kPa): 201.47 ± 1.2 kg/m3
viscosity (448.11 K, 5054.5 kPa): 0.02122 ± 0.00095 mPa·s
mass density (448.11 K, 5054.8 kPa): 201.47 ± 1.2 kg/m3
viscosity (448.11 K, 5054.8 kPa): 0.02124 ± 0.00095 mPa·s
mass density (448.11 K, 6144.8 kPa): 304.18 ± 0.71 kg/m3
viscosity (448.11 K, 6144.8 kPa): 0.0341 ± 0.001 mPa·s
mass density (448.11 K, 6145 kPa): 304.17 ± 0.71 kg/m3
viscosity (448.11 K, 6145 kPa): 0.0341 ± 0.001 mPa·s
mass density (448.13 K, 4161.6 kPa): 114.81 ± 0.93 kg/m3
viscosity (448.13 K, 4161.6 kPa): 0.01481 ± 0.00089 mPa·s and 0.01479 ± 0.00089 mPa·s
mass density (448.13 K, 4847 kPa): 174.1 ± 1.2 kg/m3
viscosity (448.13 K, 4847 kPa): 0.01885 ± 0.00093 mPa·s
mass density (448.13 K, 5203.2 kPa): 222.02 ± 1.2 kg/m3
viscosity (448.13 K, 5203.2 kPa): 0.02331 ± 0.00096 mPa·s
mass density (448.13 K, 5203.5 kPa): 222.03 ± 1.2 kg/m3
viscosity (448.13 K, 5203.5 kPa): 0.02333 ± 0.00096 mPa·s
mass density (448.13 K, 7189.8 kPa): 340.36 ± 0.53 kg/m3
viscosity (448.13 K, 7189.8 kPa): 0.04055 ± 0.0011 mPa·s
mass density (448.14 K, 7191 kPa): 340.37 ± 0.53 kg/m3
viscosity (448.14 K, 7191 kPa): 0.04061 ± 0.0011 mPa·s
mass density (448.14 K, 18184 kPa): 440.74 ± 0.51 kg/m3
viscosity (448.14 K, 18184 kPa): 0.06811 ± 0.0013 mPa·s
mass density (448.14 K, 18187 kPa): 440.74 ± 0.51 kg/m3
viscosity (448.14 K, 18187 kPa): 0.06813 ± 0.0013 mPa·s
mass density (448.14 K, 29460 kPa): 478.91 ± 0.54 kg/m3
viscosity (448.14 K, 29460 kPa): 0.08497 ± 0.0014 mPa·s
mass density (448.15 K, 220.17 kPa): 3.4915 ± 0.018 kg/m3
viscosity (448.15 K, 220.17 kPa): 0.01102 ± 0.00086 mPa·s
mass density (448.15 K, 618.43 kPa): 10.135 ± 0.029 kg/m3
viscosity (448.15 K, 618.43 kPa): 0.0111 ± 0.00086 mPa·s
mass density (448.15 K, 618.6 kPa): 10.141 ± 0.029 kg/m3
viscosity (448.15 K, 618.6 kPa): 0.01109 ± 0.00086 mPa·s
mass density (448.15 K, 807.6 kPa): 13.453 ± 0.035 kg/m3
viscosity (448.15 K, 807.6 kPa): 0.01114 ± 0.00086 mPa·s
mass density (448.15 K, 1661.9 kPa): 30.078 ± 0.068 kg/m3
viscosity (448.15 K, 1661.9 kPa): 0.01146 ± 0.00086 mPa·s
mass density (448.15 K, 3073.3 kPa): 66.943 ± 0.17 kg/m3
viscosity (448.15 K, 3073.3 kPa): 0.01257 ± 0.00087 mPa·s
mass density (448.15 K, 5551.9 kPa): 263.05 ± 0.92 kg/m3
viscosity (448.15 K, 5551.9 kPa): 0.02811 ± 0.001 mPa·s
mass density (448.15 K, 5553.7 kPa): 263.02 ± 0.92 kg/m3
viscosity (448.15 K, 5553.7 kPa): 0.02811 ± 0.001 mPa·s
mass density (448.15 K, 11528 kPa): 400.23 ± 0.48 kg/m3
viscosity (448.15 K, 11528 kPa): 0.05478 ± 0.0012 mPa·s
mass density (448.15 K, 11529 kPa): 400.23 ± 0.48 kg/m3
viscosity (448.15 K, 11529 kPa): 0.05477 ± 0.0012 mPa·s
mass density (448.15 K, 14319 kPa): 420.46 ± 0.5 kg/m3
viscosity (448.15 K, 14319 kPa): 0.06101 ± 0.0012 mPa·s
mass density (448.15 K, 29472 kPa): 478.91 ± 0.54 kg/m3
viscosity (448.15 K, 29472 kPa): 0.08489 ± 0.0014 mPa·s
mass density (448.16 K, 220.38 kPa): 3.4965 ± 0.018 kg/m3
viscosity (448.16 K, 220.38 kPa): 0.01101 ± 0.00086 mPa·s
mass density (448.16 K, 430.17 kPa): 6.9362 ± 0.024 kg/m3
viscosity (448.16 K, 430.17 kPa): 0.01106 ± 0.00086 mPa·s
mass density (448.16 K, 431.02 kPa): 6.95 ± 0.024 kg/m3
viscosity (448.16 K, 431.02 kPa): 0.01106 ± 0.00086 mPa·s
mass density (448.16 K, 508.5 kPa): 8.2591 ± 0.026 kg/m3
viscosity (448.16 K, 508.5 kPa): 0.01107 ± 0.00086 mPa·s
mass density (448.16 K, 509.69 kPa): 8.28 ± 0.026 kg/m3
viscosity (448.16 K, 509.69 kPa): 0.01107 ± 0.00086 mPa·s
mass density (448.16 K, 807.76 kPa): 13.456 ± 0.035 kg/m3
viscosity (448.16 K, 807.76 kPa): 0.01115 ± 0.00086 mPa·s
mass density (448.16 K, 1662.2 kPa): 30.086 ± 0.068 kg/m3
viscosity (448.16 K, 1662.2 kPa): 0.01146 ± 0.00086 mPa·s
mass density (448.16 K, 2073.7 kPa): 39.305 ± 0.09 kg/m3
viscosity (448.16 K, 2073.7 kPa): 0.01169 ± 0.00086 mPa·s
mass density (448.16 K, 2511.8 kPa): 50.321 ± 0.12 kg/m3
viscosity (448.16 K, 2511.8 kPa): 0.01201 ± 0.00087 mPa·s
mass density (448.16 K, 2512.1 kPa): 50.329 ± 0.12 kg/m3
viscosity (448.16 K, 2512.1 kPa): 0.012 ± 0.00087 mPa·s
mass density (448.16 K, 3073.3 kPa): 66.941 ± 0.17 kg/m3
viscosity (448.16 K, 3073.3 kPa): 0.01257 ± 0.00087 mPa·s
mass density (448.16 K, 6551.1 kPa): 321.12 ± 0.62 kg/m3
viscosity (448.16 K, 6551.1 kPa): 0.03695 ± 0.0011 mPa·s
mass density (448.16 K, 6551.4 kPa): 321.12 ± 0.62 kg/m3
viscosity (448.16 K, 6551.4 kPa): 0.03694 ± 0.0011 mPa·s
mass density (448.16 K, 8139.4 kPa): 359.98 ± 0.51 kg/m3
viscosity (448.16 K, 8139.4 kPa): 0.04474 ± 0.0011 mPa·s
mass density (448.16 K, 8140.6 kPa): 359.99 ± 0.51 kg/m3
viscosity (448.16 K, 8140.6 kPa): 0.04466 ± 0.0011 mPa·s
mass density (448.16 K, 23152 kPa): 460.08 ± 0.52 kg/m3
viscosity (448.16 K, 23152 kPa): 0.07601 ± 0.0014 mPa·s
mass density (448.17 K, 1158.4 kPa): 19.932 ± 0.048 kg/m3
viscosity (448.17 K, 1158.4 kPa): 0.01125 ± 0.00086 mPa·s
mass density (448.17 K, 2073 kPa): 39.287 ± 0.09 kg/m3
viscosity (448.17 K, 2073 kPa): 0.01169 ± 0.00086 mPa·s
mass density (448.17 K, 4498.3 kPa): 138.72 ± 1 kg/m3
viscosity (448.17 K, 4498.3 kPa): 0.01627 ± 0.00091 mPa·s
mass density (448.17 K, 5346.6 kPa): 240.34 ± 1.2 kg/m3
viscosity (448.17 K, 5346.6 kPa): 0.02533 ± 0.00098 mPa·s
mass density (448.17 K, 9537.4 kPa): 380.12 ± 0.49 kg/m3
viscosity (448.17 K, 9537.4 kPa): 0.04948 ± 0.0012 mPa·s
mass density (448.17 K, 9538.6 kPa): 380.13 ± 0.49 kg/m3
viscosity (448.17 K, 9538.6 kPa): 0.0494 ± 0.0012 mPa·s
mass density (448.17 K, 14321 kPa): 420.46 ± 0.5 kg/m3
viscosity (448.17 K, 14321 kPa): 0.06093 ± 0.0012 mPa·s
mass density (448.17 K, 23154 kPa): 460.09 ± 0.52 kg/m3
viscosity (448.17 K, 23154 kPa): 0.07593 ± 0.0014 mPa·s
mass density (448.18 K, 3433.7 kPa): 79.735 ± 0.23 kg/m3
viscosity (448.18 K, 3433.7 kPa): 0.01307 ± 0.00088 mPa·s
mass density (448.18 K, 3433.9 kPa): 79.739 ± 0.23 kg/m3
viscosity (448.18 K, 3433.9 kPa): 0.01308 ± 0.00088 mPa·s
mass density (448.18 K, 3747.8 kPa): 92.905 ± 0.34 kg/m3
viscosity (448.18 K, 3747.8 kPa): 0.01367 ± 0.00088 mPa·s
mass density (448.18 K, 4498.1 kPa): 138.68 ± 1 kg/m3
viscosity (448.18 K, 4498.1 kPa): 0.01625 ± 0.00091 mPa·s
mass density (448.18 K, 5346.7 kPa): 240.34 ± 1.2 kg/m3
viscosity (448.18 K, 5346.7 kPa): 0.02534 ± 0.00098 mPa·s
mass density (448.19 K, 3747.9 kPa): 92.91 ± 0.34 kg/m3
viscosity (448.19 K, 3747.9 kPa): 0.01367 ± 0.00088 mPa·s
mass density (448.23 K, 4727 kPa): 160.07 ± 1.1 kg/m3
viscosity (448.23 K, 4727 kPa): 0.01777 ± 0.00092 mPa·s
mass density (448.23 K, 4727.1 kPa): 160.07 ± 1.1 kg/m3
viscosity (448.23 K, 4727.1 kPa): 0.01776 ± 0.00092 mPa·s
mass density (448.27 K, 5784.6 kPa): 281.65 ± 0.8 kg/m3
viscosity (448.27 K, 5784.6 kPa): 0.03063 ± 0.001 mPa·s
mass density (448.28 K, 5785.1 kPa): 281.66 ± 0.8 kg/m3
viscosity (448.28 K, 5785.1 kPa): 0.03066 ± 0.001 mPa·s
